Results: patent publication US8192962B2, “Processes for detecting toxic substances” (Daikin Industries, Ltd., priority 2001, dated 2012)

System: Detoxification protein genes
Assay: DNA chip mRNA expression in yeast, detoxification protein genes (Table 8)
Format: cell-based, Saccharomyces cerevisiae S288C
Method in brief: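 Cells were grown at 25° C. in YPD, treated at logarithmic phase for 2 h with a chemical at a concentration inhibiting growth but not causing death, and compared with untreated cultures. Labeled cDNA was hybridized to a DNA chip carrying all yeast genes, and the expression ratio was taken from scanner fluorescence.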

What does the source list for `C=CC=O` [(14), acrolein]?
The level of expressed mRNA in the presence of chemical substance/The level of expressed mRNA in the absence of chemical substance (yeast gene YBL064C): 5.0; The level of expressed mRNA in the presence of chemical substance/The level of expressed mRNA in the absence of chemical substance (yeast gene YBR008C): 4.1; The level of expressed mRNA in the presence of chemical substance/The level of expressed mRNA in the absence of chemical substance (yeast gene YBR145W): 2.2; The level of expressed mRNA in the presence of chemical substance/The level of expressed mRNA in the absence of chemical substance (yeast gene YBR244W): 3.7; The level of expressed mRNA in the presence of chemical substance/The level of expressed mRNA in the absence of chemical substance (yeast gene YBR293W): 1.4; The level of expressed mRNA in the presence of chemical substance/The level of expressed mRNA in the absence of chemical substance (yeast gene YCL035C): 2.5; The level of expressed mRNA in the presence of chemical substance/The level of expressed mRNA in the absence of chemical substance (yeast gene YCL069W): 1.3; The level of expressed mRNA in the presence of chemical substance/The level of expressed mRNA in the absence of chemical substance (yeast gene YCR083W): 2.4; The level of expressed mRNA in the presence of chemical substance/The level of expressed mRNA in the absence of chemical substance (yeast gene YDL100C): 1.4; The level of expressed mRNA in the presence of chemical substance/The level of expressed mRNA in the absence of chemical substance (yeast gene YDL168W): 1.6; The level of expressed mRNA in the presence of chemical substance/The level of expressed mRNA in the absence of chemical substance (yeast gene YDR256C): 1.6; The level of expressed mRNA in the presence of chemical substance/The level of expressed mRNA in the absence of chemical substance (yeast gene YDR453C): 3.8; The level of expressed mRNA in the presence of chemical substance/The level of expressed mRNA in the absence of chemical substance (yeast gene YDR513W): 2.0; The level of expressed mRNA in the presence of chemical substance/The level of expressed mRNA in the absence of chemical substance (yeast gene YDR538W): 0.9; The level of expressed mRNA in the presence of chemical substance/The level of expressed mRNA in the absence of chemical substance (yeast gene YEL027W): 1.4; The level of expressed mRNA in the presence of chemical substance/The level of expressed mRNA in the absence of chemical substance (yeast gene YEL065W): 0.4; The level of expressed mRNA in the presence of chemical substance/The level of expressed mRNA in the absence of chemical substance (yeast gene YER185W): 1.6; The level of expressed mRNA in the presence of chemical substance/The level of expressed mRNA in the absence of chemical substance (yeast gene YFL050C): 1.0; The level of expressed mRNA in the presence of chemical substance/The level of expressed mRNA in the absence of chemical substance (yeast gene YGL013C): 0.8; The level of expressed mRNA in the presence of chemical substance/The level of expressed mRNA in the absence of chemical substance (yeast gene YGL254W): 1.3; The level of expressed mRNA in the presence of chemical substance/The level of expressed mRNA in the absence of chemical substance (yeast gene YGR088W): 1.3; The level of expressed mRNA in the presence of chemical substance/The level of expressed mRNA in the absence of chemical substance (yeast gene YGR138C): 0.9; The level of expressed mRNA in the presence of chemical substance/The level of expressed mRNA in the absence of chemical substance (yeast gene YGR197C): 1.5; The level of expressed mRNA in the presence of chemical substance/The level of expressed mRNA in the absence of chemical substance (yeast gene YGR209C): 5.0; The level of expressed mRNA in the presence of chemical substance/The level of expressed mRNA in the absence of chemical substance (yeast gene YGR224W): 0.9; The level of expressed mRNA in the presence of chemical substance/The level of expressed mRNA in the absence of chemical substance (yeast gene YHL040C): 1.1; The level of expressed mRNA in the presence of chemical substance/The level of expressed mRNA in the absence of chemical substance (yeast gene YHL047C): 0.5; The level of expressed mRNA in the presence of chemical substance/The level of expressed mRNA in the absence of chemical substance (yeast gene YHR008C): 1.6; The level of expressed mRNA in the presence of chemical substance/The level of expressed mRNA in the absence of chemical substance (yeast gene YHR048W): 1.7; The level of expressed mRNA in the presence of chemical substance/The level of expressed mRNA in the absence of chemical substance (yeast gene YHR053C): 1.5; The level of expressed mRNA in the presence of chemical substance/The level of expressed mRNA in the absence of chemical substance (yeast gene YHR055C): 1.5; The level of expressed mRNA in the presence of chemical substance/The level of expressed mRNA in the absence of chemical substance (yeast gene YIR002C): 1.1; The level of expressed mRNA in the presence of chemical substance/The level of expressed mRNA in the absence of chemical substance (yeast gene YIR038C): 2.5; The level of expressed mRNA in the presence of chemical substance/The level of expressed mRNA in the absence of chemical substance (yeast gene YJL101C): 1.0; The level of expressed mRNA in the presence of chemical substance/The level of expressed mRNA in the absence of chemical substance (yeast gene YJR104C): 2.0; The level of expressed mRNA in the presence of chemical substance/The level of expressed mRNA in the absence of chemical substance (yeast gene YKL026C): 1.8; The level of expressed mRNA in the presence of chemical substance/The level of expressed mRNA in the absence of chemical substance (yeast gene YKL064W): 1.1; The level of expressed mRNA in the presence of chemical substance/The level of expressed mRNA in the absence of chemical substance (yeast gene YKR066C): 1.5; The level of expressed mRNA in the presence of chemical substance/The level of expressed mRNA in the absence of chemical substance (yeast gene YKR105C): 1.2; The level of expressed mRNA in the presence of chemical substance/The level of expressed mRNA in the absence of chemical substance (yeast gene YKR106W): 1.7; The level of expressed mRNA in the presence of chemical substance/The level of expressed mRNA in the absence of chemical substance (yeast gene YLL028W): 0.7; The level of expressed mRNA in the presence of chemical substance/The level of expressed mRNA in the absence of chemical substance (yeast gene YLL057C): 1.1; The level of expressed mRNA in the presence of chemical substance/The level of expressed mRNA in the absence of chemical substance (yeast gene YLL060C): 10.6; The level of expressed mRNA in the presence of chemical substance/The level of expressed mRNA in the absence of chemical substance (yeast gene YLR043C): 2.1; The level of expressed mRNA in the presence of chemical substance/The level of expressed mRNA in the absence of chemical substance (yeast gene YLR046C): 1.3; The level of expressed mRNA in the presence of chemical substance/The level of expressed mRNA in the absence of chemical substance (yeast gene YML028W): 2.0; The level of expressed mRNA in the presence of chemical substance/The level of expressed mRNA in the absence of chemical substance (yeast gene YML116W): 2.0; The level of expressed mRNA in the presence of chemical substance/The level of expressed mRNA in the absence of chemical substance (yeast gene YMR015C): 0.8; The level of expressed mRNA in the presence of chemical substance/The level of expressed mRNA in the absence of chemical substance (yeast gene YMR038C): 1.1; The level of expressed mRNA in the presence of chemical substance/The level of expressed mRNA in the absence of chemical substance (yeast gene YNL239W): 1.3; The level of expressed mRNA in the presence of chemical substance/The level of expressed mRNA in the absence of chemical substance (yeast gene YNL241C): 1.1; The level of expressed mRNA in the presence of chemical substance/The level of expressed mRNA in the absence of chemical substance (yeast gene YNL259C): 1.4; The level of expressed mRNA in the presence of chemical substance/The level of expressed mRNA in the absence of chemical substance (yeast gene YOL158C): 1.0; The level of expressed mRNA in the presence of chemical substance/The level of expressed mRNA in the absence of chemical substance (yeast gene YOR031W): 1.5; The level of expressed mRNA in the presence of chemical substance/The level of expressed mRNA in the absence of chemical substance (yeast gene YOR153W): 0.3; The level of expressed mRNA in the presence of chemical substance/The level of expressed mRNA in the absence of chemical substance (yeast gene YOR247W): 0.4; The level of expressed mRNA in the presence of chemical substance/The level of expressed mRNA in the absence of chemical substance (yeast gene YOR251C): 1.1; The level of expressed mRNA in the presence of chemical substance/The level of expressed mRNA in the absence of chemical substance (yeast gene YOR273C): 0.5; The level of expressed mRNA in the presence of chemical substance/The level of expressed mRNA in the absence of chemical substance (yeast gene YPL163C): 0.6; The level of expressed mRNA in the presence of chemical substance/The level of expressed mRNA in the absence of chemical substance (yeast gene YPR200C): 2.0
